How the values were obtained:
[1] = molecular target: T1, M2_G15 fusion protein (M2 muscarinic receptor fused with the G15 G-protein alpha-subunit) (Homo sapiens, UniProt P08172); assay: agonist-stimulated […]GTPγS binding, membranes; type: biochemical; design: gene CHRM2; clone #3, except KA from all five clones
T1 sequence (P08172 1-466): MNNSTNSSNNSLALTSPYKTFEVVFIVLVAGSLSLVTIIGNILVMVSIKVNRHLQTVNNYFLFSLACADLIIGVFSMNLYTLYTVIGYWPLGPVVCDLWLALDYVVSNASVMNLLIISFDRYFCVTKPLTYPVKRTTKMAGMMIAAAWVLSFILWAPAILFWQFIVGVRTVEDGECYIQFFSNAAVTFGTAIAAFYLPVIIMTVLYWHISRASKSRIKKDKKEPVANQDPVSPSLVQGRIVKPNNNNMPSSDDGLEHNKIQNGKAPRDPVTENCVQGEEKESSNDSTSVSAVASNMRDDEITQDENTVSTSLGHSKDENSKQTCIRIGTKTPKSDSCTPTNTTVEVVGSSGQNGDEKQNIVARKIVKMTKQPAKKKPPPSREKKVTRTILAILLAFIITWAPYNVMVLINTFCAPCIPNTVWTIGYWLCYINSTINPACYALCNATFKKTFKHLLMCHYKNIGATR
T1 sequence (P30679 1-374 partner): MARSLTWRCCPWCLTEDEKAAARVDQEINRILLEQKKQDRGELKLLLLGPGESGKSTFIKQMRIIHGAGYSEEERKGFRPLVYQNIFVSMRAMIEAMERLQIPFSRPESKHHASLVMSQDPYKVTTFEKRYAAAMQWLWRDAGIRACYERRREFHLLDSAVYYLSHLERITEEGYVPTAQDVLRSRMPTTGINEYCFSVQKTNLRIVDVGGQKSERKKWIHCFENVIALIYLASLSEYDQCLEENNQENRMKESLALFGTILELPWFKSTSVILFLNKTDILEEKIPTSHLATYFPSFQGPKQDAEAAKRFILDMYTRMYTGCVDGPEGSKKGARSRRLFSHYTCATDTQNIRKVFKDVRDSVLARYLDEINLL

[2] = molecular target: T2, M4_G15 fusion protein (M4 muscarinic receptor fused with the G15 G-protein alpha-subunit) (Homo sapiens, UniProt P08173); assay: agonist-stimulated […]GTPγS binding, membranes; type: biochemical; design: gene CHRM4; M4 fused via ARATR linker to N-terminus of G15 alpha-subunit (one fused chain); clone #3, except KA from all five clones
T2 sequence (P08173 1-479): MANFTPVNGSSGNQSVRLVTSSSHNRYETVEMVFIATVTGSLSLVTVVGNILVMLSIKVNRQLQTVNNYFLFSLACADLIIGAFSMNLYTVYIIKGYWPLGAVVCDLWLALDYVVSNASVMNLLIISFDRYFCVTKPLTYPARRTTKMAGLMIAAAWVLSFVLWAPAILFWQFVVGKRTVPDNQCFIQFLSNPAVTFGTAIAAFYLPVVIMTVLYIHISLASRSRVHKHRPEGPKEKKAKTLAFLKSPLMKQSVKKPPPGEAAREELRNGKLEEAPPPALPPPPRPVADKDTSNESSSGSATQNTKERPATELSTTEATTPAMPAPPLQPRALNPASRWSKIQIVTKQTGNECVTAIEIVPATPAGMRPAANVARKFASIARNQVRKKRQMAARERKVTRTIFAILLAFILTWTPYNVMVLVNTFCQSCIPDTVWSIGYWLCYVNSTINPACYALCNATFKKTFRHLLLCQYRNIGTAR
T2 sequence (P30679 1-374 partner): T1 sequence (P30679 1-374 partner)

[3] = molecular target: T2, M4_G15 fusion protein (M4 muscarinic receptor fused with the G15 G-protein alpha-subunit); assay: biochemical; design: gene CHRM4
[4] = molecular target: T1, M2_G15 fusion protein (M2 muscarinic receptor fused with the G15 G-protein alpha-subunit); assay: biochemical; design: gene CHRM2

| SMILES | pEC50 ([1]; clone #[…], agonist; […] […]GTPγS, […] GDP, […] MgCl2, […] °C) | EC50 [2] [nM] | Ki [3] [nM] | EC50 [1] [nM] | Ki [4] [nM] |
| --- | --- | --- | --- | --- | --- |
| Clc1ccc2c(c1)N=C(N1CCNCC1)c1ccccc1N2 [NDMC] | 6.84 ± 0.03 |  |  |  |  |
| O=C1CCCN1CC#CCN1CCCC1 [oxotremorine] |  | 17 | 1480 | 18.6 | 1660 |
